Reference: patent US20240041042A1, “1-(PYRIDYL)-5-AZINYLPYRAZOLE DERIVATIVES, AND THEIR USE FOR CONTROL OF UNDESIRED PLANT GROWTH” (Bayer Aktiengesellschaft, priority 2020, published 2024)

Legend:
Type in all cases: in vivo
[1] = test system: Alopecurus myosuroides (ALOMY); assay: Pre-emergence herbicidal action against ALOMY; details: scored visually after about 3 weeks, 100% = plants have died
Outline: (§1)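 Application rates ran to 320 g/ha or lower, with several dosages tested on the same weeds. The compound, as wettable powder or emulsion concentrate, is sprayed pre-emergence onto soil over sown seeds; greenhouse growth follows, and effect is rated visually after roughly 3 weeks.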

[2] = test system: Amaranthus retroflexus (AMARE); assay: Pre-emergence herbicidal action against AMARE; details: visual scoring after about 3 weeks vs untreated controls
Outline: as §1

[3] = test system: Avena fatua (AVEFA); assay: Pre-emergence herbicidal action against AVEFA; details: visual scoring after about 3 weeks vs untreated controls
Outline: as §1

[4] = test system: Echinochloa crus-galli (ECHCG); assay: Pre-emergence herbicidal action against ECHCG
Outline: as §1

[5] = test system: Lolium rigidum (LOLRI); assay: Pre-emergence herbicidal action against LOLRI
Outline: as §1

[6] = test system: Matricaria inodora (MATIN); assay: Pre-emergence herbicidal action against MATIN; details: dosage 320 g/ha
Outline: as §1

[7] = test system: Pharbitis purpurea (PHBPU); assay: Pre-emergence herbicidal action against PHBPU; details: dosage 320 g/ha
Outline: as §1

[8] = test system: Polygonum convolvulus (POLCO); assay: Pre-emergence herbicidal action against POLCO
Outline: as §1

[9] = test system: Setaria viridis (SETVI); assay: Pre-emergence herbicidal action against SETVI
Outline: as §1

[10] = test system: Verconica persica (VERPE); assay: Pre-emergence herbicidal action against VERPE
Outline: as §1

[11] = test system: Viola tricolor (VIOTR); assay: Pre-emergence herbicidal action against VIOTR
Outline: as §1

[12] = test system: Alopecurus myosuroides (ALOMY); assay: Post-emergence herbicidal action against ALOMY; details: visual rating about 3 weeks after treatment vs untreated controls (100% = plants have died, 0% = like control plants)
Outline: (§2)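 Rates were 320 g/ha or below, applied as aqueous WP/EC spray with 0.5% additive (600 l/ha) onto one-leaf-stage plants. About 3 weeks later in the greenhouse, damage was scored visually against untreated plants on a 0–100% scale, where 100% means plants died.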

[13] = test system: Avena fatua (AVEFA); assay: Post-emergence herbicidal action against AVEFA; details: visual rating about 3 weeks after treatment
Outline: as §2

[14] = test system: Echinochloa crus-galli (ECHCG); assay: Post-emergence herbicidal action against ECHCG
Outline: as §2

[15] = test system: Lolium rigidum (LOLRI); assay: Post-emergence herbicidal action against LOLRI
Outline: as §2

[16] = test system: Matricaria inodora (MATIN); assay: Post-emergence herbicidal action against MATIN
Experimental: Seeds of monocotyledonous and dicotyledonous weeds and crop plants are placed in sandy loam in plastic or organic planting pots, covered with soil and cultivated in a greenhouse under controlled growth conditions. 2 to 3 weeks after sowing, the test plants are treated at the one-leaf stage. The compounds of the invention, formulated in the form of wettable powders (WP) or as emulsion concentrates (EC), are then sprayed onto the green parts of the plants as aqueous suspension or emulsion with addition of 0.5% additive at a water application rate of 600 l/ha (converted). After the test plants have been kept in the greenhouse under optimum growth conditions for about 3 weeks, the activity of the preparations is rated visually in comparison to untreated controls. For example, 100% activity=the plants have died, 0% activity=like control plants.
Tables B1 to B13 below show the effects of selected compounds of the general formula (I) according to Table 1 on various harmful plants and at an application rate corresponding to 320 g/ha or lower, which were obtained by the experimental procedure mentioned above. The appendices “a”, “b” and “c” give differentiation by dosage used with otherwise the same harmful plants tested.

[17] = test system: Pharbitis purpurea (PHBPU); assay: Post-emergence herbicidal action against PHBPU
Outline: as §2

[18] = test system: Setaria viridis (SETVI); assay: Post-emergence herbicidal action against SETVI
Outline: as §2

[19] = test system: Verconica persica (VERPE); assay: Post-emergence herbicidal action against VERPE
Outline: as §2

[20] = test system: Viola tricolor (VIOTR); assay: Post-emergence herbicidal action against VIOTR
Outline: as §2

[21] = test system: Zea mays (ZEAMX); details: crop plant compatibility, 80 g/ha, effect vs untreated controls
Outline: (§3)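 Effects were read visually as % versus untreated controls (0% = no effect, 100% = death) about 3 weeks post-treatment. Application was a post-emergence spray at the one-leaf stage of WP/EC formulations with 0.5% additive at 600 l/ha. Different dosages are denoted a, b and c.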

[22] = test system: Amaranthus retroflexus (AMARE); assay: Post-emergence herbicidal action against AMARE
Outline: as §2

[23] = test system: Polygonum convolvulus (POLCO); assay: Post-emergence herbicidal action against POLCO
Outline: as §2

[24] = test system: Oryza sativa (ORYSA); details: crop plant compatibility, 80 g/ha, effect in comparison to untreated controls
Outline: as §3

SMILES | Pre-emergence action against ALOMY ([1]; 80 g/ha) [%] | Pre-emergence action against ALOMY ([1]; 320 g/ha) [%] | Pre-emergence action against AMARE in % ([2]; 80 g/ha) [%] | Pre-emergence action against AMARE in % ([2]; 320 g/ha) [%] | Pre-emergence action against AVEFA in % ([3]; 320 g/ha) [%] | Pre-emergence action against ECHCG in % ([4]; dosage 80 g/ha) [%] | Pre-emergence action against ECHCG in % ([4]; dosage 320 g/ha) [%] | Pre-emergence action against LOLRI in % ([5]; dosage 320 g/ha) [%] | Pre-emergence action against MATIN in % [6] [%] | Pre-emergence action against PHBPU in % [7] [%] | Pre-emergence action against POLCO in % ([8]; dosage 320 g/ha) [%] | Pre-emergence action against SETVI in % ([9]; dosage 320 g/ha) [%] | Pre-emergence action against VERPE in % ([10]; dosage 320 g/ha) [%] | Pre-emergence action against VIOTR in % ([11]; 320 g/ha, Viola tricolor) [%] | Post-emergence action against ALOMY in % ([12]; 80 g/ha) [%] | Post-emergence action against ALOMY in % ([12]; 320 g/ha) [%] | Post-emergence action against AVEFA in % ([13]; 80 g/ha) [%] | Post-emergence action against AVEFA in % ([13]; 320 g/ha) [%] | Post-emergence action against ECHCG in % ([14]; dosage 320 g/ha) [%] | Post-emergence action against LOLRI in % ([15]; dosage 320 g/ha) [%] | other results
CCOC(=O)COc1nn(-c2ncccc2C)c(-c2ccc(F)nc2)c1Cl [Example I-316] | 90 | 100 | 100 | 100 | 100 | 100 | 100 | 100 | 100 | 90 | 100 | 100 | 100 | 100 | 100 | 100 | 90 | 100 | 90 | 100 | Pre-emergence action against LOLRI in % ([5]; dosage 80 g/ha): 100%; Pre-emergence action against POLCO in % ([8]; dosage 80 g/ha): 100%; Pre-emergence action against SETVI in % ([9]; dosage 80 g/ha): 100%; Pre-emergence action against VIOTR in % ([11]; dosage 80 g/ha): 100%; Post-emergence action against ECHCG in % ([14]; dosage 80 g/ha): 90%; Post-emergence action against LOLRI in % ([15]; dosage 80 g/ha): 100%; Post-emergence action against MATIN in % ([16]; dosage 80 g/ha): 80%; Post-emergence action against MATIN in % ([16]; dosage 320 g/ha): 90%; Post-emergence action against PHBPU in % ([17]; dosage 80 g/ha): 90%; Post-emergence action against PHBPU in % ([17]; dosage 320 g/ha): 90%; Post-emergence action against SETVI in % ([18]; dosage 80 g/ha): 90%; Post-emergence action against SETVI in % ([18]; dosage 320 g/ha): 90%; Post-emergence action against VERPE in % ([19]; 320 g/ha, VERPE): 90%; Post-emergence action against VERPE in % ([19]; dosage 80 g/ha): 90%; Post-emergence action against VIOTR in % ([20]; 80 g/ha): 90%; Post-emergence action against VIOTR in % ([20]; 320 g/ha): 90%; Post-emergence action against ZEAMX in % [21]: 0%
COC(=O)[C@H](C)NC(=O)COc1nn(-c2ccccn2)c(-c2ccc(F)nc2)c1Cl [Example I-87] | 90 | 100 | 90 | 100 | 90 | 100 | 100 | 100 | 90 | 90 | 90 | 100 | 90 | 80 | 80 | 90 | 80 | 90 | 80 | 80 | Pre-emergence action against AVEFA in % ([3]; 80 g/ha): 80%; Pre-emergence action against POLCO in % ([8]; dosage 80 g/ha): 80%; Pre-emergence action against SETVI in % ([9]; dosage 80 g/ha): 90%; Pre-emergence action against VERPE in % ([10]; dosage 80 g/ha): 80%; Post-emergence action against AMARE in % ([22]; 80 g/ha, visual rating about 3 weeks after treatment vs untreated controls (100% = plants have died, 0% = like control plants)): 80%; Post-emergence action against AMARE in % ([22]; 320 g/ha, visual rating about 3 weeks after treatment): 80%; Post-emergence action against MATIN in % ([16]; dosage 320 g/ha): 80%; Post-emergence action against PHBPU in % ([17]; dosage 320 g/ha): 90%; Post-emergence action against POLCO in % ([23]; dosage 80 g/ha): 80%; Post-emergence action against POLCO in % ([23]; dosage 320 g/ha): 80%; Post-emergence action against SETVI in % ([18]; dosage 80 g/ha): 80%; Post-emergence action against SETVI in % ([18]; dosage 320 g/ha): 80%; Post-emergence action against VERPE in % ([19]; 320 g/ha, VERPE): 90%; Post-emergence action against VERPE in % ([19]; dosage 80 g/ha): 80%; Post-emergence action against ORYSA in % [24]: 0%
Cc1cccnc1-n1nc(OCC(=O)O)c(Cl)c1-c1ccc(F)nc1 [Example I-323] | 100 | 100 | 100 | 100 | 100 | 90 | 100 | 100 | 100 | 90 | 100 | 100 | 100 | 100 | 100 | 100 | 90 | 90 | 90 | 90 | Pre-emergence action against AVEFA in % ([3]; 80 g/ha): 90%; Pre-emergence action against LOLRI in % ([5]; dosage 80 g/ha): 100%; Pre-emergence action against VIOTR in % ([11]; dosage 80 g/ha): 100%; Post-emergence action against ECHCG in % ([14]; dosage 80 g/ha): 90%; Post-emergence action against LOLRI in % ([15]; dosage 80 g/ha): 90%; Post-emergence action against MATIN in % ([16]; dosage 320 g/ha): 90%; Post-emergence action against PHBPU in % ([17]; dosage 320 g/ha): 80%; Post-emergence action against SETVI in % ([18]; dosage 320 g/ha): 90%; Post-emergence action against VERPE in % ([19]; 320 g/ha, VERPE): 90%; Post-emergence action against VERPE in % ([19]; dosage 80 g/ha): 90%; Post-emergence action against VIOTR in % ([20]; 80 g/ha): 90%; Post-emergence action against VIOTR in % ([20]; 320 g/ha): 90%; Post-emergence action against ZEAMX in % [21]: 0%
